This is an account of results in US12527772B2, “Pharmaceutical combination comprising ponesimod” (Vanda Pharmaceuticals Inc., priority 2017, dated 2026).

Holding throughout (type): in vivo
A short description of assay [1]: combination efficacy experiment, acute monophasic rat EAE model: body weight. The following applies: ponesimod 30 mg/kg q.d. from day 0; over the 21 days study. As to the method: Groups of 10 rats are dosed orally starting at the day of disease induction (day 0) with different doses of teriflunomide in the range between 1 and 10 mg/kg once daily (q.d.) or with 30 mg/kg ponesimod q.d. Clinical scores are assessed on a daily basis and disease development is compared between vehicle-treated rats and rats receiving teriflunomide or ponesimod (vehicle: 0.5% Methylcellulose/0.5% Tween® 80/water). In parallel, body weights of the rats are monitored on a daily basis to follow general health. Hematology parameters, including lymphocyte counts, are measured at 3 different time points: 6 and 24 hours after the oral gavage at day 20 and at the termination of the experiment at day 21, 3 hours post dosing. Plasma samples can be taken for compound concentration determination and for the measurement of protein markers. The combination efficacy experiment is performed in the same rat EAE model as described for the first pilot experiment. It consists of four treatment groups: • 1. Vehicle (0.5% Methylcellulose/0.5% Tween® 80/water) q.d., from day 0 • 2. Teriflunomide (1 mg/kg) q.d., from day 0 • 3. Ponesimod (30 mg/kg) q.d., from day 0 • 4. Teriflunomide (1 mg/kg) q.d., from day 0+ponesimod (30 mg/kg) q.d., from day 0 In life and termination endpoints are the same as described for the first pilot experiment. […]

Assay [2] concerns acute monophasic rat EAE model. The experiment in a line: combination efficacy experiment, acute monophasic rat EAE model: clinical scores. The following applies: for efficacy on the clinical course of EAE (average clinical score, FIG. 1): each compound alone, ponesimod 30 mg/kg q.d., teriflunomide 1 mg/kg q.d., from day 0, 21 days study; for severity of the disease (maximal clinical score reached over the 21 days study, FIG. 2): ponesimod 30 mg/kg q.d. and/or teriflunomide 1 mg/kg q.d. from day 0. Here is the method:
Female Lewis rats are immunized with an emulsion of myelin basic protein (MBP) from Guinea pig in complete Freund's adjuvant. A total of 200 micrograms of MBP is injected per rat at two sites subcutaneously (right paw and base of tail). Within 10 days the rats develop signs of paralysis which will be graded on a scale from 0 to 15 assessing the tail and each limb individually according to the method originally described by Weaver A. et al., FASEB J., 2005, 19(12): 1668-1670. The disease takes an acute monophasic course and is self-remitting. Usually by day 21 clinical scores reach values below 3.0.
(§1) Groups of 10 rats are dosed orally starting at the day of disease induction (day 0) with different doses of teriflunomide in the range between 1 and 10 mg/kg once daily (q.d.) or with 30 mg/kg ponesimod q.d. Clinical scores are assessed on a daily basis and disease development is compared between vehicle-treated rats and rats receiving teriflunomide or ponesimod (vehicle: 0.5% Methylcellulose/0.5% Tween® 80/water). In parallel, body weights of the rats are monitored on a daily basis to follow general health. Hematology parameters, including lymphocyte counts, are measured at 3 different time points: 6 and 24 hours after the oral gavage at day 20 and at the termination of the experiment at day 21, 3 hours post dosing. Plasma samples can be taken for compound concentration determination and for the measurement of protein markers.
The combination efficacy experiment is performed in the same rat EAE model as described for the first pilot experiment. It consists of four treatment groups: • 1. Vehicle (0.5% Methylcellulose/0.5% Tween® 80/water) q.d., from day 0 • 2. Teriflunomide (1 mg/kg) q.d., from day 0 • 3. Ponesimod (30 mg/kg) q.d., from day 0 • 4. Teriflunomide (1 mg/kg) q.d., from day 0+ponesimod (30 mg/kg) q.d., from day 0
In life and termination endpoints are the same as described for the first pilot experiment.
Data collected in the pilot experiment are similar to those obtained in the combination study and therefore are used to increase the monotherapy groups size in order to increase sensitivity as described by Bate S. et al., PLoS One., 2014, 9(12): e114872. […] When combined, the two compounds benefit from each other.

The subject of assay [3] is lymphocytes. Briefly: first pilot experiment, rat EAE model: hematology, lymphocyte counts. The following applies: ponesimod 30 mg/kg oral q.d.; over 24 hours. As to the method:
as §1, with “markers. Based on the first pilot experiment described above one dose of teriflunomide is selected for the combination efficacy experiment.” for “markers.”

Assay [4] deals with acute monophasic models of experimental autoimmune encephalomyelitis (EAE). Briefly: first pilot experiment, acute monophasic rat EAE model: clinical scores. Conditions: female Lewis rats, teriflunomide 1 mg/kg oral q.d. from day 0. Here is the method:
The efficacy of teriflunomide and ponesimod in acute monophasic models of experimental autoimmune encephalomyelitis (EAE) can be determined in a pilot experiment. Female Lewis rats are immunized with an emulsion of myelin basic protein (MBP) from Guinea pig in complete Freund's adjuvant. A total of 200 micrograms of MBP is injected per rat at two sites subcutaneously (right paw and base of tail). Within 10 days the rats develop signs of paralysis which will be graded on a scale from 0 to 15 assessing the tail and each limb individually according to the method originally described by Weaver A. et al., FASEB J., 2005, 19(12): 1668-1670. The disease takes an acute monophasic course and is self-remitting. Usually by day 21 clinical scores reach values below 3.0. Groups of 10 rats are dosed orally starting at the day of disease induction (day 0) with different doses of teriflunomide in the range between 1 and 10 mg/kg once daily (q.d.) or with 30 mg/kg ponesimod q.d. Clinical scores are assessed on a daily basis and disease development is compared between vehicle-treated rats and rats receiving teriflunomide or ponesimod (vehicle: 0.5% Methylcellulose/0.5% Tween® 80/water). In parallel, body weights of the rats are monitored on a daily basis to follow general health. Hematology parameters, including lymphocyte counts, are measured at 3 different time points: 6 and 24 hours after the oral gavage at day 20 and at the termination of the experiment at day 21, 3 hours post dosing. Plasma samples can be taken for compound concentration determination and for the measurement of protein markers. Based on the first pilot experiment described above one dose of teriflunomide is selected for the combination efficacy experiment.

The mark [5] stands for this setting: teriflunomide alone 1 mg/kg q.d. from day 0.

Consider `CCC/N=C1\S/C(=C\c2ccc(OC[C@H](O)CO)c(Cl)c2)C(=O)N1c1ccccc1C` [ponesimod, (R)-5-[3-chloro-4-(2,3-dihydroxy-propoxy)-benz[Z]ylidene]-2-([Z]-propylimino)-3-o-tolyl-thiazolidin-4-one], for which the “body weight loss (FIG. 3 and FIG. 4)” value in assay [1] is recorded as “reduction in body weight loss”. Further, in assay [2], the “efficacy on the clinical course of EAE (average clinical score, FIG. 1)” value was “moderate efficacy” and the “severity of the disease (maximal clinical score reached over the 21 days study, FIG. 2)” value is “no effect”. Also, the “effect on clinical score during the ascending phase (FIG. 1)” value in assay [2] (ponesimod 30 mg/kg q.d. from day 0) was “moderate effect”. The reduction of lymphocytes entry in assay [3] was “partial reduction of lymphocytes”.

For `C/C(O)=C(\C#N)C(=O)Nc1ccc(C(F)(F)F)cc1` [teriflunomide, (Z)-2-cyano-3-hydroxy-but-2-enoic acid-(4-trifluoromethylphenyl)-amide], in assay [2], the “efficacy on the clinical course of EAE (average clinical score, FIG. 1)” value was “moderate efficacy” and the “severity of the disease (maximal clinical score reached over the 21 days study, FIG. 2)” value is reported as “no effect”. Besides, in assay [2] (setting [5]), the “disease onset (FIG. 1)” value is on record as “strong delay of disease onset”; the “efficacy on EAE scores (FIG. 1 and FIG. 2)” value was “partial efficacy”. For the same molecule, in assay [4], the disease onset result was “strong delay of disease onset”, the “efficacy on EAE scores” value is reported as “partial efficacy” and the “severity of the disease” value is reported as “without affecting the severity of the disease”.
